Laboratory results from US7186544B2, “Agents for promoting fattening of animals and method of promoting fattening” (Fuso Chemical Co., Ltd., priority 1999, dated 2007).

Key:
Mitsuokella multiacidus [1] = test: Example 15: short-chain fatty acid production by isolated strain; assay type: cell-based
Method: (§1) The strains Megasphaera elsdenii and Mitsuokella multiacidus having grown in Example 14 were anaerobically incubated in PYF media (100 mL) with 1% w/v sodium gluconate added thereto, at 39° C. for 24 hours. The cultures were analyzed on the concentration of the short-chain fatty acids (mM) therein in the same manner as in Example 12.

Megasphaera elsdenii [2] = test: as above; assay type: cell-based
Method: as §1

[3] = tested on: new born broiler chicks (Chunky); test: Test Example 3: feeding / drinking water test in broiler chicks, 8 weeks; assay type: in vivo, chickens; settings: 0.5% in feed and 0.14% in drinking water vs chicks not having taken sodium gluconate
Method: The feeds of Example 10 and Comparative Example 4 and the drinking water prepared in Example 11 were fed to groups of new born broiler chicks (Chunky), each group being composed of 50 chicks (25 male chicks and 25 female chicks), continuously for 8 weeks. At the start of the feeding test, on two weeks, 4 weeks and 6 weeks after the start of the test, and at the end of the test, that is, five times in all, the chicks were weighed individually, and an increase in the body weight was calculated for every group. In each group, checked was the feed intake during the period between the days on which the body weight was measured, and the feed conversion ratio was calculated from the overall body weight increase and the overall feed intake.

Mitsuokella multiacidus [4] = test: Example 14: count of isolated strain in 144-hour culture; assay type: cell-based
Method: (§2) Pigs were acclimated for 1 week, and the contents of their large intestines were taken out. The contents were diluted 5-fold with an anaerobic phosphate buffer (50 mM, pH 6.5), and then filtrated through 4-layered gauze. One mL of the resulting filtrate was inoculated on a PYF medium (100 mL) with 1 w/v % sodium gluconate added thereto, and incubated in an anaerobic condition at 39° C.
(§3) During incubation, 5 mL of a sterilized 10 w/v % aqueous solution of sodium gluconate were put into the medium at intervals of 48 hours.
(§4) The culture without sodium gluconate and the culture with sodium gluconate added thereto were sampled on 0, 8, 24, 48, 96 and 144 hours in a germ-free condition, and the samples were diluted to 10^−5. 0.05 mL of each dilution were inoculated on BL agar media (manufactured by Nissui), and anaerobically incubated at 37° C. for 48 hours. The number of colonies of anaerobic microorganisms having grown in agar plates was counted (Table 7).
(§5) At the same time, according to the properties of the colonies thus grown, strains having grown only on the agar plate inoculated with the 144-hour sample of sodium gluconate-added culture were isolated, and they were counted and identified (Table 8).

Megasphaera elsdenii [5] = test: as above; assay type: cell-based
Method: as §2, §3, §4, §5

[6] = tested on: contents of pig large intestines; test: Example 12: static culture of pig large intestine contents, acids and ammonia; assay type: cell-based, pigs
Method: Three pigs were acclimated for 1 week, and the contents of their large intestines were taken out. The contents were diluted 5-fold with an anaerobic phosphate buffer (50 mM, pH 6.5), and then filtrated through 4-layered gauze. 25 mL of the resulting filtrate was put into serum bottles of 120 mL volume, and the gas phase therein was purged with a mixed gas of nitrogen/carbon dioxide (80/20). The bottles were sealed with butyl rubber stoppers and aluminum seals, and left for static culture at 39° C. for 24 hours (n=3).
Prior to putting the intestinal filtrate into the serum bottles, 1 w/v % glucose (positive control) and 1 w/v % sodium gluconate were put in the bottles, except for an additive-free control (negative control).
After the intestinal filtrate was thus cultivated, 1 mL of 6 N hydrochloric acid was added thereto to stop fermentation. The resulting cultures were analyzed as follows:
The cultures were pre-treated according to the Ushida and Sakata's conditions (Anim. Sci. Technol., 69, 571–575, […]), and then were analyzed on the concentration of short-chain fatty acids, succinic acid and lactic acid therein by HPLC and the concentration of ammonia therein by the indophenol method (Weatherburn, Analytic Chem., 39, 971–974, 1967). Subtracting the concentration before cultivation from that after cultivation gives the amount (mM) generated through fermentation.

anaerobic microorganisms = test: Example 14: number of colonies of anaerobic microorganisms in PYF culture of pig intestinal filtrate; assay type: cell-based, pigs
Method: as §2, §3, §4

[7] = tested on: contents of pig large intestines; test: Example 13: fermentation gas generated in culture of pig large intestine contents; assay type: cell-based, pigs
Method: The amount of fermentation gas generated in the cultivation of Example 12 was measured by putting a glass syringe equipped with an injection needle into a head space of the serum bottle, sucking the gas until normal pressure is reached and measuring the sucked gas by a syringe scale.
The composition of the gas was analyzed for carbon dioxide, methane, hydrogen and hydrogen sulfide by TCD and FPD gas chromatography (Ushida, et al.; Jpn. J. Zootech. Sci., 53, 412–416, 1982, and Anim. Sci. Technol., 69, 571–575, 1998).

piglets = test: Test Example 4: feeding test in piglets, 8 weeks, sodium gluconate dose series; assay type: in vivo, pigs; settings: for Body Weight Increase ± S.D. / Feed Conversion Ratio ± S.D.: piglets about 20 kg, 8 weeks; for Body Weight Increase (index %) / Feed Conversion Ratio (index %): control with no additive = 100
From the text: To a feed for latter artificial milk suckling-stage piglets (manufactured by Nippon Kagaku Shiryo Kyokai) and to a feed for raising piglets (manufactured by Nippon Kagaku Shiryo Kyokai), added were 0.05, 0.1, 0.25, 0.5 and 1.0%, relative to the weight of the feeds, of sodium gluconate.
The above-mentioned feeds were fed to groups of piglets (body weight: about 20 kg), each group being composed of 4 piglets (2 male piglets and 2 female piglets), continuously for 8 weeks (the feed for latter artificial milk for the former 2 weeks and the feed for raising piglets for the latter 6 weeks). During the period of the feeding test, each of the piglets was weighed every week, and an increase in the body weight was calculated for every group. In each group, checked was the feed intake during the period between the days on which the body weight was measured, and the feed conversion ratio was calculated.
This test was repeated 10 times for the group not having taken sodium gluconate and the group having taken 0.5% sodium gluconate, but 5 times for the other groups having taken sodium gluconate in different concentrations. The obtained body weight increases and the feed conversion ratios were averaged for every group.

[8] = PYF medium with 1% w/v sodium gluconate, 39° C., 24 hours
[9] = sodium gluconate added minus control with no additive
[10] = 144-hour sample of sodium gluconate-added culture
[11] = after cultivation, 1 w/v % additive, 39° C., 24 hours, n=3
[12] = index based on the data before cultivation of 100
[13] = cultivation of Example 12, 1 w/v % additive, n=3
[14] = 0.05% added to feed, 5 test cycles
[15] = 0.1% added to feed, 5 test cycles
[16] = 0.25% added to feed, 5 test cycles
[17] = 0.5% added to feed, 10 test cycles
[18] = 1.0% added to feed, 5 test cycles

O=C([O-])[C@H](O)[C@@H](O)[C@H](O)[C@H](O)CO.[Na+] [Sodium Gluconate, sodium gluconate]
Acetic Acid (Mitsuokella multiacidus [1]; [8]): 9.9 mM
Butyric Acid (Mitsuokella multiacidus [1]; [8]): 1.0 mM
Propionic Acid (Mitsuokella multiacidus [1]; [8]): 43.1 mM
short-chain fatty acids produced by Mitsuokella multiacidus utilizing sodium gluconate (Mitsuokella multiacidus [1]; in words): produced a lot of acetic acid and propionic acid
Acetic Acid, Difference (Mitsuokella multiacidus [1]; [9]): 7.0 mM
Butyric Acid, Difference (Mitsuokella multiacidus [1]; [9]): 0.7 mM
Propionic Acid, Difference (Mitsuokella multiacidus [1]; [9]): 36.1 mM
Acetic Acid (Megasphaera elsdenii [2]; [8]): 8.7 mM
Butyric Acid (Megasphaera elsdenii [2]; [8]): 4.9 mM
Propionic Acid (Megasphaera elsdenii [2]; [8]): 0.8 mM
short-chain fatty acids produced by Megasphaera elsdenii utilizing sodium gluconate (Megasphaera elsdenii [2]; in words): produced a lot of acetic acid and butyric acid
Acetic Acid, Difference (Megasphaera elsdenii [2]; [9]): 2.9 mM
Butyric Acid, Difference (Megasphaera elsdenii [2]; [9]): 3.5 mM
Propionic Acid, Difference (Megasphaera elsdenii [2]; [9]): -0.8 mM
feed efficiency improved by [3]: 6%
number of Mitsuokella multiacidus (Mitsuokella multiacidus [4]; [10]): 7.2 logarithmic number of the cells in 1 g of culture
Mitsuokella multiacidus number (Mitsuokella multiacidus [4]; in words): observed to increase
number of Megasphaera elsdenii (Megasphaera elsdenii [5]; [10]): 6.4 logarithmic number of the cells in 1 g of culture
Megasphaera elsdenii number (Megasphaera elsdenii [5]; in words): observed to increase
Acetic Acid [6, 11]: 161.90 mM
Ammonia [6, 11]: 5.79 mM
Butyric Acid [6, 11]: 70.36 mM
Lactic Acid [6, 11]: 0 mM
Propionic Acid [6, 11]: 103.25 mM
Succinic Acid [6, 11]: 0 mM
lactic acid, succinic acid and ammonia in the cultures ([6]; in words): greatly reduce
concentration of acetic acid, propionic acid and butyric acid in the cultures ([6]; in words, compared with cultures without sodium gluconate): greatly increased
Acetic Acid (index) [6, 12]: (404)
Ammonia (index) [6, 12]: (74)
Butyric Acid (index) [6, 12]: (1305)
Lactic Acid (index) [6, 12]: (0)
Propionic Acid (index) [6, 12]: (941)
Succinic Acid (index) [6, 12]: (0)
number of anaerobic microorganisms (anaerobic microorganisms; 0 hrs after start of incubation, 1 w/v % in PYF medium, 39° C.): <6.3 logarithmic number of the cells in 1 g of culture
number of anaerobic microorganisms (anaerobic microorganisms; 8 hrs after start of incubation): 8.9 logarithmic number of the cells in 1 g of culture
number of anaerobic microorganisms (anaerobic microorganisms; 24 hrs after start of incubation): 10.7 logarithmic number of the cells in 1 g of culture
number of anaerobic microorganisms (anaerobic microorganisms; 48 hrs after start of incubation): 8.7 logarithmic number of the cells in 1 g of culture
number of anaerobic microorganisms (anaerobic microorganisms; 96 hrs after start of incubation): 10.4 logarithmic number of the cells in 1 g of culture
number of anaerobic microorganisms (anaerobic microorganisms; 144 hrs after start of incubation): 7.7 logarithmic number of the cells in 1 g of culture
total number of anaerobic microorganisms (anaerobic microorganisms; in words): increased
Carbon Dioxide [7, 13]: 4330 µL/g
Hydrogen [7, 13]: 211.99 µL/g
Hydrogen Sulfide [7, 13]: 0.09 µL/g
Methane [7, 13]: 30 µL/g
Total Gas [7, 13]: 6880 µL/g
hydrogen sulfide in the cultures ([7]; in words, compared with cultures with no additives): greatly reduced
Body Weight Increase ± S.D. (piglets; [14]): 39.96 ± 5.83 kg
Feed Conversion Ratio ± S.D. (piglets; [14]): 2.62 ± 0.15
Body Weight Increase (index %) (piglets; 0.05% added to feed): (104) %
Feed Conversion Ratio (index %) (piglets; 0.05% added to feed): (97) %
Body Weight Increase ± S.D. (piglets; [15]): 40.92 ± 4.49 kg
Feed Conversion Ratio ± S.D. (piglets; [15]): 2.58 ± 0.11
Body Weight Increase (index %) (piglets; 0.1% added to feed): (106) %
Feed Conversion Ratio (index %) (piglets; 0.1% added to feed): (96) %
Body Weight Increase ± S.D. (piglets; [16]): 41.26 ± 3.44 kg
Feed Conversion Ratio ± S.D. (piglets; [16]): 2.55 ± 0.17
Body Weight Increase (index %) (piglets; 0.25% added to feed): (107) %
Feed Conversion Ratio (index %) (piglets; 0.25% added to feed): (94) %
Body Weight Increase ± S.D. (piglets; [17]): 40.43 ± 4.40 kg
Feed Conversion Ratio ± S.D. (piglets; [17]): 2.63 ± 0.12
Body Weight Increase (index %) (piglets; 0.5% added to feed): (105) %
Feed Conversion Ratio (index %) (piglets; 0.5% added to feed): (97) %
Body Weight Increase ± S.D. (piglets; [18]): 39.28 ± 2.58 kg
Feed Conversion Ratio ± S.D. (piglets; [18]): 2.74 ± 0.05
Body Weight Increase (index %) (piglets; 1.0% added to feed): (102) %
Feed Conversion Ratio (index %) (piglets; 1.0% added to feed): (101) %
